From patent US20180155344A1, “TRICYCLIC PIPERIDINE COMPOUNDS” (ACTELION PHARMACEUTICALS LTD, priority 2015, published 2018)

Biological target: T1, human TPH1 (Homo sapiens, UniProt P17752)
T1 sequence (P17752 1-444): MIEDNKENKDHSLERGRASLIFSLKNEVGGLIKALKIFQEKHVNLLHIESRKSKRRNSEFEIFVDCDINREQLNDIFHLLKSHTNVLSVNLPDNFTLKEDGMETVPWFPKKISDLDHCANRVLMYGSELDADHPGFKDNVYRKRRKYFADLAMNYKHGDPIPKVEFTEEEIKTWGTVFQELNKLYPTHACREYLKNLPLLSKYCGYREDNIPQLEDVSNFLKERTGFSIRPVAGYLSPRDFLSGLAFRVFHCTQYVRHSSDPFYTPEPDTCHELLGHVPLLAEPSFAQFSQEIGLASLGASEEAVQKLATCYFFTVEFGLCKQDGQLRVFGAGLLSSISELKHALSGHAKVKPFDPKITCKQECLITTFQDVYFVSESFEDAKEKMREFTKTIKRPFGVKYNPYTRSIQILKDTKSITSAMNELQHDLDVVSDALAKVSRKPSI
Test: biochemical
Method in brief: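 Inhibition is derived from 5-hydroxy-L-tryptophan fluorescence (540 nm emission, 300 nm excitation) after perchloric acid stop, relative to DMSO vehicle. Recombinant full-length human enzyme (40-80 nM) reacts with 40 μM tryptophan plus 100 μM methyltetrahydropterin, pH 7.6 Tris/DTT/catalase, 15° C, 60 min.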

SMILES: COc1ccc(C2c3c(nc4cc(Cl)ccn34)CCN2C(=O)COc2ccc(CN3CCOCC3)cc2Cl)cc1OC[C@H](O)CO (stereo partly drawn) [Example 2.10.2, 1-(7-chloro-1-(3-((R)-2,3-dihydroxypropoxy)-4-methoxyphenyl)-3,4-dihydroimidazo[1,2-a:5,4-c′]dipyridin-2(1H)-yl)-2-(2-chloro-4-(morpholinomethyl)phenoxy)ethan-1-one]
- IC50: 19 nM

SMILES: COCCCOc1cc(C2c3c(nc4cc(Cl)ccn34)CCN2C(=O)COc2ccc3ccccc3c2)ccc1OC (stereo not shown) [Example 2.11.1, 1-(7-chloro-1-(4-methoxy-3-(3-methoxypropoxy)phenyl)-3,4-dihydroimidazo[1,2-a:5,4-c′]dipyridin-2(1H)-yi)-2-(naphthalen-2-yloxy)ethan-1-one]
- IC50: 32 nM

SMILES: COc1ccc(C2c3c(nc4cc(Cl)ccn34)CCN2C(=O)COc2ccc3ccccc3c2)cc1OCCCO (stereo not shown) [Example 2.12.1, 1-(7-chloro-1-(3-(3-hydroxypropoxy)-4-methoxyphenyl)-3,4-dihydroimidazo[1,2-a:5,4-c′]dipyridin-2(1H)-yl)-2-(naphthalen-2-yloxy)ethan-1-one]
- IC50: 22 nM

SMILES: COc1ccc(C2c3c(nc4cc(Cl)ccn34)CCN2C(=O)COc2ccc3ccccc3c2)cc1OCCO (stereo not shown) [Example 2.13.1, 1-(7-chloro-1-(3-(2-hydroxyethoxy)-4-methoxyphenyl)-3,4-dihydroimidazo[1,2-a:5,4-c′]dipyridin-2(1H)-yl)-2-(naphthalen-2-yloxy)ethan-1-one]
- IC50: 34 nM

SMILES: COc1ccc(C2c3c(nc4cc(Cl)ccn34)CCN2C(=O)COc2ccc(CN3CCOCC3)cc2Cl)cc1OCCO (stereo not shown) [Example 2.13.2, 1-(7-chloro-1-(3-(2-hydroxyethoxy)-4-methoxyphenyl)-3,4-dihydroimidazo[1,2-a:5,4-c′]dipyridin-2(1H)-yl)-2-(2-chloro-4-(morpholinomethyl)phenoxy)ethan-1-one]
- IC50: 23 nM

SMILES: COC(=O)COc1cc(C2c3c(nc4cc(Cl)ccn34)CCN2C(=O)COc2ccc(CN3CCOCC3)cc2Cl)ccc1OC (stereo not shown) [Example 2.14.1, Methyl 2-(5-(7-chloro-2-(2-(2-chloro-4-(morpholinomethyl)phenoxy)acetyl)-1,2,3,4-tetrahydroimidazo[1,2-a:5,4-c′]dipyridin-1-yl)-2-methoxyphenoxy)acetate]
- IC50: 88 nM

SMILES: Cc1ccc(C2c3c(nc4cc(Cl)ccn34)CCN2C(=O)COc2ccc(NS(C)(=O)=O)nc2Cl)c(F)c1 (stereo not shown) [Example 2.15.1, N-(6-chloro-5-(2-(7-chloro-1-(2-fluoro-4-methylphenyl)-3,4-dihydroimidazo[1,2-a:5,4-c′]dipyridin-2(1H)-yl)-2-oxoethoxy)pyridin-2-yl)methanesulfonamide]
- IC50: 51 nM

SMILES: COc1ccc(C2c3c(nc4cc(C(F)(F)F)ccn34)CCN2C(=O)COc2ccc3ccccc3c2)cc1OC (stereo not shown) [Example 3.1.1, 1-(1-(3,4-dimethoxyphenyl)-7-(trifluoromethyl)-3,4-dihydroimidazo[1,2-a:5,4-c′]dipyridin-2(1H)-yl)-2-(naphthalen-2-yloxy)ethan-1-one]
- IC50: 15 nM

SMILES: COc1ccc(C2c3c(nc4cc(C(F)(F)F)ccn34)CCN2C(=O)COc2ccc(Cl)cc2Cl)cc1OC (stereo not shown) [Example 3.1.2, 2-(2,4-Dichlorophenoxy)-1-(1-(3,4-dimethoxyphenyl)-7-(trifluoromethyl)-3,4-dihydroimidazo[1,2-a:5,4-c′]dipyridin-2(1H)-yl)ethan-1-one]
- IC50: 30 nM

SMILES: COc1ccc(C2c3c(nc4cc(C(F)(F)F)ccn34)CCN2C(=O)COc2ccc(C(F)(F)F)cc2Cl)cc1OC (stereo not shown) [Example 3.1.3, 2-(2-chloro-4-(trifluoromethyl)phenoxy)-1-(1-(3,4-dimethoxyphenyl)-7-(trifluoromethyl)-3,4-dihydroimidazo[1,2-a:5,4-c′]dipyridin-2(1H)-yl)ethan-1-one]
- IC50: 36 nM

SMILES: COc1ccc(C2c3c(nc4cc(C(F)(F)F)ccn34)CCN2C(=O)COc2cc(C(F)(F)F)ccc2Cl)cc1OC (stereo not shown) [Example 3.1.4]
- IC50: 202 nM

SMILES: COc1ccc(C2c3c(nc4cc(C(F)(F)F)ccn34)CCN2C(=O)COc2ccccc2C)cc1OC (stereo not shown) [Example 3.1.5]
- IC50: 153 nM

SMILES: COc1ccc(C2c3c(nc4cc(C(F)(F)F)ccn34)CCN2C(=O)COc2ccc(C)cc2)cc1OC (stereo not shown) [Example 3.1.6, 1-(1-(3,4-dimethoxyphenyl)-7-(trifluoromethyl)-3,4-dihydroimidazo[1,2-a:5,4-c′]dipyridin-2(1H)-yl)-2-(p-tolyloxy)ethan-1-one]
- IC50: 71 nM

SMILES: COc1ccc(C2c3c(nc4cc(C(F)(F)F)ccn34)CCN2C(=O)COc2ccccc2C(F)(F)F)cc1OC (stereo not shown) [Example 3.1.7, 1-(1-(3,4-dimethoxyphenyl)-7-(trifluoromethyl)-3,4-dihydroimidazo[1,2-a:5,4-c′]dipyridin-2(1H)-yl)-2-(2-(trifluoromethyl)phenoxy)ethan-1-one]
- IC50: 29 nM

SMILES: COc1ccc(C2c3c(nc4cc(C(F)(F)F)ccn34)CCN2C(=O)COc2ccc(C(F)(F)F)cc2)cc1OC (stereo not shown) [Example 3.1.8]
- IC50: 132 nM

SMILES: COc1ccc(C2c3c(nc4cc(C(F)(F)F)ccn34)CCN2C(=O)COc2cccc(C(F)(F)F)c2)cc1OC (stereo not shown) [Example 3.1.9]
- IC50: 422 nM

SMILES: COc1ccc(C2c3c(nc4cc(C(F)(F)F)ccn34)CCN2C(=O)COc2ccc(OC(F)(F)F)cc2)cc1OC (stereo not shown) [Example 3.1.11]
- IC50: 199 nM

SMILES: COc1ccc(C2c3c(nc4cc(C(F)(F)F)ccn34)CCN2C(=O)COc2cc(C)ccc2Cl)cc1OC (stereo not shown) [Example 3.1.12, 2-(2-chloro-5-methylphenoxy)-1-(1-(3,4-dimethoxyphenyl)-7-(trifluoromethyl)-3,4-dihydroimidazo[1,2-a:5,4-c′]dipyridin-2(1H)-yl)ethan-1-one]
- IC50: 64 nM

SMILES: COc1ccc(C2c3c(nc4cc(C(F)(F)F)ccn34)CCN2C(=O)COc2cccc(C(F)(F)F)c2Cl)cc1OC (stereo not shown) [Example 3.1.13, 2-(2-chloro-3-(trifluoromethyl)phenoxy)-1-(1-(3,4-dimethoxyphenyl)-7-(trifluoromethyl)-3,4-dihydroimidazo[1,2-a:5,4-c′]dipyridin-2(1H)-yl)ethan-1-one]
- IC50: 19 nM

SMILES: COc1ccc(C2c3c(nc4cc(C(F)(F)F)ccn34)CCN2C(=O)COc2cc(F)ccc2Cl)cc1OC (stereo not shown) [Example 3.1.14]
- IC50: 103 nM

SMILES: COc1ccc(C2c3c(nc4cc(C(F)(F)F)ccn34)CCN2C(=O)COc2cccnc2Cl)cc1OC (stereo not shown) [Example 3.1.15, 2-((2-chloropyridin-3-yl)oxy)-1-(1-(3,4-dimethoxyphenyl)-7-(trifluoromethyl)-3,4-dihydroimidazo[1,2-a:5,4-c′]dipyridin-2(1H)-yl)ethan-1-one]
- IC50: 67 nM

SMILES: COc1ccc(C2c3c(nc4cc(C(F)(F)F)ccn34)CCN2C(=O)COc2cccnc2C)cc1OC (stereo not shown) [Example 3.1.16]
- IC50: 266 nM

SMILES: COc1ccc(C2c3c(nc4cc(C(F)(F)F)ccn34)CCN2C(=O)COc2cccnc2Br)cc1OC (stereo not shown) [Example 3.1.17, 2-((2-bromopyridin-3-yl)oxy)-1-(1-(3,4-dimethoxyphenyl)-7-(trifluoromethyl)-3,4-dihydroimidazo[1,2-a:5,4-c′]dipyridin-2(1H)-yl)ethan-1-one]
- IC50: 20 nM

SMILES: COc1ccc(C2c3c(nc4cc(C(F)(F)F)ccn34)CCN2C(=O)COc2cnccc2Cl)cc1OC (stereo not shown) [Example 3.1.18]
- IC50: 235 nM

SMILES: COc1ccc(C2c3c(nc4cc(C(F)(F)F)ccn34)CCN2C(=O)COc2ccc3ncccc3c2)cc1OC (stereo not shown) [Example 3.1.19]
- IC50: 117 nM
